Earlier results in patent US20070259967A1, “Methods of Diagnosis” (priority 2004, published 2007).

Tests used:
[1] = amphetamine administered to children with ADHD; Zametkin et al. 1984
[2] = majority of the cited clinical studies of selegiline in ADHD
Platelet MAO-B = biological target: T1, Platelet MAO-B (Homo sapiens, UniProt P27338); conditions: 0.24 mM pargyline added as blank; 20 μM PEA, 37° C., 30 minutes; method from Zhou et al.
T1 construct: the platelet pellet was resuspended with saline to obtain a concentration of 107 platelets/ml and then sonicated for 10 seconds; from tissue; host or cells: blood platelets (platelet rich plasma from fasting venous blood)
T1 sequence (P27338 1-520): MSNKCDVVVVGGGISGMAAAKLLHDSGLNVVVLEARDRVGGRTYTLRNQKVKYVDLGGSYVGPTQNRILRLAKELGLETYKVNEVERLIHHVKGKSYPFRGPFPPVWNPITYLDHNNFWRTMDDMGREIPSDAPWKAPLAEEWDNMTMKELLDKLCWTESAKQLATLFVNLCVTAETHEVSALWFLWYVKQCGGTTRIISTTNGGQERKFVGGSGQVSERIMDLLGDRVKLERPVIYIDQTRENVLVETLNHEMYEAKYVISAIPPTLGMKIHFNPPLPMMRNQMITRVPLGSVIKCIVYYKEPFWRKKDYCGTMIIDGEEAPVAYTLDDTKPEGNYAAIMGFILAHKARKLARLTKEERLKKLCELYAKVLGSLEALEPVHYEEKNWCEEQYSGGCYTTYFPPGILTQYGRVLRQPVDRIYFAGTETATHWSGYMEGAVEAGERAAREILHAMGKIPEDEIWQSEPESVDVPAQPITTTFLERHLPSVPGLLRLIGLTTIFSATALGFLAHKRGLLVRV

Structure (SMILES): CC(N)Cc1ccccc1 (stereo not drawn) [amphetamine]
- increase in the excretion of urinary phenylethylamine (PEA) [1]: 1600%

Structure (SMILES): C#CCN(C)[C@H](C)Cc1ccccc1.Cl [selegiline]
- benefit to ADHD patients compared with psycho-stimulant treatment [2]: less benefit to the patients than psycho-stimulant treatment

Structure (SMILES): C#CCN(C)Cc1ccccc1 [pargyline]
- production of PAA (phenylacetic acid) (Platelet MAO-B): no production of PAA
